{"source": "patent US12064516B2", "about": "“Pharmaceutical formulations and uses thereof” (Aldeyra Therapeutics, Inc., priority 2020, dated 2024)", "assay": "Solubility of I-1 drug substance", "type": "physicochemical", "description": "Spray-drying was selected for formulation of this compound. By co-precipitating the compound with a polymer in a stable amorphous solid dispersion, spray-drying improved the dissolution rates and enhanced the bioavailability. […] This made I-1 an appropriate candidate for the application of formulation through spray drying dispersion (SDD).", "data": [{"compound": "CC(C)(O)c1nc2ccccc2cc1N", "note": "[I-1]", "values": [{"measurement": "solubility in aqueous media", "value": "poor solubility in aqueous media"}, {"measurement": "solubility in non-polar solvents", "value": "increased solubility in non-polar solvents"}]}]}
